The values that follow come from the NIST ThermoML archive (doi:10.1021/je800077r).

Data set [1] in a line: xn = mol fraction of the nth substance listed. The note with it: 101 kPa, Liquid; for speed of sound: Sing-around technique in a fixed-path interferometer; for mass density: Vibrating tube method.
Data set [2] is described as follows: refractive index (Na D-line) (dimensionless); xn = mol fraction of the nth substance listed. The following applies: 101 kPa, Liquid, Standard Abbe refractometry.

Numbers after ± are expanded uncertainties.

Turning to `CCOC(C)=O` [ethyl acetate] + CCCCCCn1cc[n+](C)c1.F[P-](F)(F)(F)(F)F, the speed of sound in data set [1] (293.15 K, x2 = 0) is listed as 1162 ± 1 m/s; in data set [1] (298.15 K, x2 = 0) it was 1141 ± 1 m/s; in data set [1] (303.15 K, x2 = 0), 1111 ± 1 m/s. Besides, the mass density in data set [1] (293.15 K, x2 = 0) is listed as 900.5 ± 0.1 kg/m3; in data set [1] (298.15 K, x2 = 0), 894.4 ± 0.1 kg/m3; in data set [1] (303.15 K, x2 = 0), 888.2 ± 0.1 kg/m3. The refractive index in data set [2] (293.15 K, x2 = 0) is reported as 1.37241 ± 0.00061; in data set [2] (298.15 K, x2 = 0), 1.36977 ± 0.00061; in data set [2] (303.15 K, x2 = 0), 1.36712 ± 0.00062.

Turning to `CCCCCC` [hexane] + CCOC(C)=O, the speed of sound in data set [1] (293.15 K, x1 = 1) is on record as 1100 ± 2 m/s; in data set [1] (298.15 K, x1 = 1), 1078 ± 2 m/s; in data set [1] (303.15 K, x1 = 1) it was 1055 ± 2 m/s. In addition, the mass density in data set [1] (293.15 K, x1 = 1) came to 659.5 ± 0.3 kg/m3; in data set [1] (298.15 K, x1 = 1), 654.9 ± 0.3 kg/m3; in data set [1] (303.15 K, x1 = 1), 650.4 ± 0.3 kg/m3. Also, the refractive index in data set [2] (293.15 K, x1 = 1) is recorded as 1.37495 ± 0.00067; in data set [2] (298.15 K, x1 = 1), 1.37217 ± 0.00067; in data set [2] (303.15 K, x1 = 1), 1.36936 ± 0.00067.

Broadly, the speed of sound is the propagation velocity of pressure waves in the medium. For orientation: mass density means mass per unit of volume. What is called refractive index is a measure of how strongly the sample bends light.
